Reference: publication PMC4897788, “Design, biological evaluation and 3D QSAR studies of novel dioxin-containing pyrazoline derivatives with thiourea skeleton as selective HER-2 inhibitors” (Scientific Reports, 2016)

Assays:
[1] = tested on: MDA-MB-453 human breast cancer cell line; assay: Anti-proliferation assay (MTT), MDA-MB-453; type: cell-based; details: 24 h
Description: (§1) MCF-7 human breast cancer cells was cultured in DMEM/10% fetal bovine serum, in 5% CO2 water saturated atmosphere at 37 °C. MDA-MB-453 human breast cancer cells was cultured in L-15 medium in 100% air at 37 °C. Cell suspensions (10000/mL) were prepared and 100 μL/well dispensed into 96-well plates (Costar) giving 1000 cells/well. The plates were returned to the incubator for 24 h to allow the cells to reattach. These compounds were initially prepared at 20 mM in DMSO. Aliquots (200 μL) were diluted into 20 mL culture medium giving 200 μM, and 10 serial dilutions of 3× prepared. Aliquots (100 μL) of each dilution were added to the wells, giving doses ranging from 100 μM to 0.005 μM. After a further incubated at 37 °C for 24 h in a humidified atmosphere with 5% CO2, the cell viability was assessed by the conventional 3-(4,5-dimethylthiazol-2-yl)-2,5-diphenyltetrazolium bromide (MTT) reduction assay and carried out strictly according to the manufacturer instructions (Sigma). The absorbance at 590 nm was recorded using LX300 Epson Diagnostic micro-plate reader. Then GI50 was calculated using SPSS 13.0 software.

[2] = tested on: MCF-7 human breast cancer cell line; assay: Anti-proliferation assay (MTT), MCF-7; type: cell-based; details: MCF7, 24 h
Description: as §1

VEGFR-2 = molecular target: T1, VEGFR-2 (Homo sapiens, UniProt P35968); assay: VEGFR-2 inhibitory assay; type: biochemical
T1 construct: either the phosphorylated or nonphosphorylated form of the VEGFR-2 kinase domain
T1 sequence (P35968 834-1162 limits assumed, species assumed): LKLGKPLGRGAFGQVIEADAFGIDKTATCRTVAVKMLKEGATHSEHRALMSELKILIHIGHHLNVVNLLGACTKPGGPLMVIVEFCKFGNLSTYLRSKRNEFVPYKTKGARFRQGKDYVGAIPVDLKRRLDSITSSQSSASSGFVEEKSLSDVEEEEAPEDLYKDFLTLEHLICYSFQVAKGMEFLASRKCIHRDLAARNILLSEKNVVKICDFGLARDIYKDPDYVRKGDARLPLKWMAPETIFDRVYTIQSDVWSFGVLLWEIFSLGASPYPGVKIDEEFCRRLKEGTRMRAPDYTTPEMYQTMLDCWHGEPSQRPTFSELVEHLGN
Description: In a 96-well plate, 5 nM/L of either the phosphorylated or nonphosphorylated form of the VEGFR-2 kinase domain was incubated with selected compounds (10-point titration ranging from 4 μM to 0.1 μM), 1 μM/L gastrin substrate, 20 mM/L Tris-HCl, pH 7.5, 10 mM/L MgCl2, 100 mM/L NaCl, 1.5 mM/L EGTA, 1 mM/L DTT, 0.2 mM/L sodium orthovanadate, and 20 μg/mL BSA for 30 min at 25 °C. ATP was added at a final concentration of 11.8 μM and incubated for 60 min at room temperature. Eu-labeled antiphosphotyrosine pT66 antibody (Perkin- Elmer) was then used for detection. The fluorescence at 665 nM was measured with a Wallac Victor plate reader using a time delay of 50 μs. The experiment was performed for three independent times and in triplicate each time.

FAK = molecular target: T2, FAK (Homo sapiens, UniProt Q05397); assay: FAK inhibitory assay (Kinase-Glo); type: biochemical
T2 construct: human-recombinant full-length FAK
T2 sequence (Q05397 whole entry): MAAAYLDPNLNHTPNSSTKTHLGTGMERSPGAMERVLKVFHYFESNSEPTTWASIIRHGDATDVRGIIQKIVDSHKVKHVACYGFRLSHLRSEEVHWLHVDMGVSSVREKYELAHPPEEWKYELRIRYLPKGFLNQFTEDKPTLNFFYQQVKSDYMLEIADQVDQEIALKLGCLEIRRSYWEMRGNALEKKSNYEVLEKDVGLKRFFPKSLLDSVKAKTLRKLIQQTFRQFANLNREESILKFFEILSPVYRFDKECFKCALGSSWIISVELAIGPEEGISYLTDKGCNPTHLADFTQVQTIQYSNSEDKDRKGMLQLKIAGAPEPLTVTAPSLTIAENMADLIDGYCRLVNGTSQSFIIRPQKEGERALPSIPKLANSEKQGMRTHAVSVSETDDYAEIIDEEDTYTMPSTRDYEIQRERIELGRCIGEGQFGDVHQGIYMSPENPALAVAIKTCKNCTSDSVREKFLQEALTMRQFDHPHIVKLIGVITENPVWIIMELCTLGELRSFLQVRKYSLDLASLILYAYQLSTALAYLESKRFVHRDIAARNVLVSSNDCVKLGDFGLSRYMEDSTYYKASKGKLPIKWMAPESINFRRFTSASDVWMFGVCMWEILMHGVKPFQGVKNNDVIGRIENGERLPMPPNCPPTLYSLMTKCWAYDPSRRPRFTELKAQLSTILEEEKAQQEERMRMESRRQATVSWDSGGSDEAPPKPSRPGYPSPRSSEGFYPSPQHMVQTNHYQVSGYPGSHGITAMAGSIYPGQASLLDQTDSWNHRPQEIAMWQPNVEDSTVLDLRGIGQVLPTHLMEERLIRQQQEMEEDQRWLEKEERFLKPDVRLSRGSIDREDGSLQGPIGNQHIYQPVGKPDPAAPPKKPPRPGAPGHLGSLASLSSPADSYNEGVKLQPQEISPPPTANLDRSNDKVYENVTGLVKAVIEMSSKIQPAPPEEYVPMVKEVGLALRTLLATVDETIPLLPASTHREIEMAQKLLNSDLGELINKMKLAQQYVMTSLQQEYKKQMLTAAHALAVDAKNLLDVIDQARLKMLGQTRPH
Description: Selected compounds were tested against FAK. In a typical study, human-recombinant full-length FAK was incubated in kinase buffer containing ATP and the substrate for 4 h at room temperature with or without the presence of the corresponding coumpounds. The final concentration of drug as 100, 30, 10, 3 μg/mL. The remaining ATP in solution was then quantified utilizing the Kinase-Glo-luminescence kit (Promega).

HER-3 = molecular target: T3, HER-3 (Homo sapiens, UniProt P21860); assay: HER-3 inhibitory assay; type: biochemical
T3 construct: HER-3 cytoplasmic domain (HER-3-CD, amino acids 665–1339); His6 (N); made in house
T3 sequence (P21860 665-1339): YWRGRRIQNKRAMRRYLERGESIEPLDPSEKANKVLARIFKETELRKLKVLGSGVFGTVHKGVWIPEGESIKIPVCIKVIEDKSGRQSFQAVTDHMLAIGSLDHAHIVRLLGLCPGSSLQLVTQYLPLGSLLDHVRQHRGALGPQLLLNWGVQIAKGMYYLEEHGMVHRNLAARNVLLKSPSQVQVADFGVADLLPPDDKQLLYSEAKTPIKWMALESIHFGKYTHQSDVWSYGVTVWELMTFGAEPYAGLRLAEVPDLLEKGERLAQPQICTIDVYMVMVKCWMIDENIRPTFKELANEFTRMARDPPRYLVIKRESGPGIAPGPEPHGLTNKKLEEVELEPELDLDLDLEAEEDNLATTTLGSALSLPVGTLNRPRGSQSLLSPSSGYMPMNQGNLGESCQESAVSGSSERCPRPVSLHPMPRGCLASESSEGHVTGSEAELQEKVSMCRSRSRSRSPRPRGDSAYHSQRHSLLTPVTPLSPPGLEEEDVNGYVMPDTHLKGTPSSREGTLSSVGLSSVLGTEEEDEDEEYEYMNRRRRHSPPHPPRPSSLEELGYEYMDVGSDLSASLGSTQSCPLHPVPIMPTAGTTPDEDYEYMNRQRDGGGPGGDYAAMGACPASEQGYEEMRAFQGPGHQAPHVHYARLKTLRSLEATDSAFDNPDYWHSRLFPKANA
Description: A sequence that encodes (His)6 was located at the 5′ upstream to the HER-2 and EGFR sequences. Sf-9 cells were infected for 3 days for protein expression. Sf-9 cell pellets were solubilized at 0 °C in a buffer at pH 7.4 containing 50 mM HEPES, 10 mM NaCl, 1% Triton, 10 μM ammonium molybdate, 100 μM sodium vanadate, 10 μg/mL aprotinin, 10 μg/mL leupeptin, 10 μg/mL pepstatin, and 16 μg/mL benzamidine, HCl for 20 min followed by 20 min centrifugation. Crude extract supernatant was passed through an equilibrated Ni–NTA superflow packed column and washed with 10 mM and then 100 mM imidazole to remove nonspecifically bound material. Histidine-tagged proteins were eluted with 250 and 500 mM imidazole and dialyzed against 50 mM NaCl, 20 mM HEPES, 10% glycerol and 1 μg/mL each of aprotinin, leupeptin, and pepstatin for 2 h. The entire purification procedure was performed at 4 °C or on ice.
A 1.8 Kb cDNA encoded for human HER-3 cytoplasmic domain (HER-3-CD, amino acids 665–1339) was applied to perform the experiment using the same method as EGFR/HER-2.

[3] = Cytotoxicity test (MTT), NIH-3T3; type: cell-based; details: mouse, NIH-3T3 mouse embryonic fibroblast cells, NIH3T3
Description: The cytotoxic activity in vitro was measured against mouse fibroblast NIH-3T3 cell using the MTT assay. Cells were cultured in a 96-well plate at a density of 5 × 10^5 cells and different concentrations of compounds were respectively added to each well. The incubation was permitted at 37 °C, 5% CO2 atmosphere for 24 h before the cytotoxicity assessments. 20 μL MTT reagent (4 mg/mL) was added per well 4 h before the end of the incubation. Four hours later, the plate was centrifuged at 1200 rcf for 5 min and the supernatants were removed, each well was added with 200 μL DMSO. The absorbance was measured at a wavelength of 490 nm (OD 490 nm) on an ELISA microplate reader. Three replicate wells were used for each concentration and each assay was measured three times, after which the average of IC50 was calculated. The cytotoxicity of each compound was expressed as the concentration of compound that reduced cell viability to 50% (IC50).

human erythrocytes = assay: Hemolysis test; type: cell-based; details: lytic concentration 30%
Description: Hemolytic activity was assayed using fresh capillary human blood. Erythrocytes were collected by centrifuging the blood three times in chilled phosphate buffered saline (PBS at 4 °C) at 1000 × g for 10 min. The final pellet was resuspended in PBS to give a 2% w/v solution. Using a microtitre plate, 100 μL of the erythrocyte solution was added to dextran, PLL, stearyl-PLL or stearyl-PLL+ LDL (1–1000/μg/mL) in a volume of […]. Samples were then incubated for 3 h and the microtitre plate was centrifuged then at 1000 × g for 10 min and the supernatants (100 μL) transferred into a new microtitre plate. Hemoglobin release was determined spectrophotometrically using a microtitre plate reader (absorbance at 550 nm). Results were expressed as the amount of released hemoglobin induced by the compounds as a percentage of the total. Hemolysis test was tested according to the guide of biological evaluation of medical device (SFDA, China).

EGFR = EGFR (Homo sapiens, UniProt P00533); assay: EGFR autophosphorylation kinase assay (DELFIA/time-resolved fluorometry)
EGFR, sequence (P00533 669-1210): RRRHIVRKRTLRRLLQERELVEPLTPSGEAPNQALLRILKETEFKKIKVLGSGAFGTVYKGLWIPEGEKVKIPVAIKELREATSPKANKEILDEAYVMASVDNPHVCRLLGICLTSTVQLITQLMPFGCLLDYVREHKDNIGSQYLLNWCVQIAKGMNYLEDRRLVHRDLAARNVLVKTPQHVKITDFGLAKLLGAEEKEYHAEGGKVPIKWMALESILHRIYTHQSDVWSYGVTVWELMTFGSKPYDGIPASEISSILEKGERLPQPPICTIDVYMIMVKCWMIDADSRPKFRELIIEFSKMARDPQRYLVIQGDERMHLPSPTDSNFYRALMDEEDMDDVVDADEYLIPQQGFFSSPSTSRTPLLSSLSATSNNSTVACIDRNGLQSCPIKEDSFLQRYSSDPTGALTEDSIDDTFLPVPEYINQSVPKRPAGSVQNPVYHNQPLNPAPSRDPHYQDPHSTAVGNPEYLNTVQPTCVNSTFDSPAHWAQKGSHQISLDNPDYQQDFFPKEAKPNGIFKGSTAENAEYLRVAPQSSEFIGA
Description: (§2) Both EGFR and HER-2 kinase assays were set up to assess the level of autophosphorylation based on DELFIA/Time-Resolved Fluorometry. […] Then, 10 μL of 5× buffer (containing 20 mM HEPES, 2 mM MnCl2, 100 μM Na3VO4, and 1 mM DTT) and 20 μL of 0.1 mM ATP-50 mM MgCl2 was added for 1 h. Positive and negative controls were included in each plate by incubation of enzyme with or without ATP-MgCl2. At the end of incubation, liquid was aspirated and plates were washed three times with wash buffer. A 75 μL (400 ng) sample of europium-labeled anti-phosphotyrosine antibody was added to each well for another 1 h of incubation. […] The IC50 was obtained from curves of percentage inhibition with eight concentrations of compound. As the contaminants in the enzyme preparation are fairly low, the majority of the signal detected by the anti-phosphotyrosine antibody is from EGFR or HER-2. The experiment was performed for three independent times and in triplicate each time.

HER-2 = HER-2 (Homo sapiens, UniProt P04626); assay: HER-2 autophosphorylation kinase assay (DELFIA/time-resolved fluorometry); details: for SI EGFR/HER-2: selectivity index, IC50 EGFR/IC50 HER-2
HER-2, sequence (P04626 676-1245): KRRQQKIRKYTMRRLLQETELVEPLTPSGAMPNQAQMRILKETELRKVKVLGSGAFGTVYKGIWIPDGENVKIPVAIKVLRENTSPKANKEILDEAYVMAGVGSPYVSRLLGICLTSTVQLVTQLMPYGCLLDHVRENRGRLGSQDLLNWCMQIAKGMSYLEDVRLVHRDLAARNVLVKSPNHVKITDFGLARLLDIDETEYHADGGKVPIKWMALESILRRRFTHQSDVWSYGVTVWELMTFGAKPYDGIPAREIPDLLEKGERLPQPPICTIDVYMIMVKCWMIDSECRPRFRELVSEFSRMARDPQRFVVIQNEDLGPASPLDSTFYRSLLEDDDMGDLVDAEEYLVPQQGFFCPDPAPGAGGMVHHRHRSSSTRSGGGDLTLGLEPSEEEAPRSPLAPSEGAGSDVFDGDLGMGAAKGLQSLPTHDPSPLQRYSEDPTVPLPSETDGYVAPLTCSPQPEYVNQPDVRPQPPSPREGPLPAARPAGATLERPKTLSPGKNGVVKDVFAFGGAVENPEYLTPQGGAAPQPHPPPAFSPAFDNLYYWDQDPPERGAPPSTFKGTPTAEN
Description: as §2

Row | Compound | GI50 [1] | GI50 [2] | IC50 (VEGFR-2) | IC50 (FAK) | IC50 (HER-3) | GI50 at 24 h [3] | Hemolysis LC30 (human erythrocytes) | IC50 (EGFR) | IC50 (HER-2) | SI EGFR/HER-2 (HER-2)
1 | Cc1ccc(C2CC(c3ccc4c(c3)OCCO4)=NN2C(N)=S)cc1 (centres unmarked) [Compound C9, 3-(2,3-dihydrobenzo[b][1,4]dioxin-6-yl)-5-(p-tolyl)-4,5-dihydro-1H-pyrazole-1-carbothioamide] | 1.38 ± 0.12 µM | 56.2 ± 5.41 µM | 11.5 ± 1.07 µM | 36.1 ± 3.21 µM | 6.32 ± 0.58 µM | 199.1 ± 1.6 µM | >10000 µg/mL | 65.2 ± 5.88 µM | 0.37 ± 0.03 µM | 176.1
2 | CSc1ccc(C2CC(c3ccc4c(c3)OCCO4)=NN2C(N)=S)cc1 (centres unmarked) [Compound C15, 3-(2,3-dihydrobenzo[b][1,4]dioxin-6-yl)-5-(4-(methylthio)phenyl)-4,5-dihydro-1H-pyrazole-1-carbothioamide] | 0.95 ± 0.08 µM | 12.1 ± 1.17 µM | 8.75 ± 0.77 µM | 40.3 ± 3.88 µM | 17.9 ± 1.48 µM | 154 ± 1.75 µM | >10000 µg/mL | 27.5 ± 2.46 µM | 0.29 ± 0.02 µM | 94.8
3 | COc1ccc(C2CC(c3ccc4c(c3)OCCO4)=NN2C(N)=S)cc1 (centres unmarked) [Compound C10, 3-(2,3-dihydrobenzo[b][1,4]dioxin-6-yl)-5-(4-methoxyphenyl)-4,5-dihydro-1H-pyrazole-1-carbothioamide] | 0.25 ± 0.02 µM | 18.2 ± 1.71 µM | 6.91 ± 0.64 µM | 64 ± 5.95 µM | 10.7 ± 0.96 µM | 204 ± 3.05 µM | >10000 µg/mL | 37.9 ± 3.75 µM | 0.08 ± 0.006 µM | 474.4
4 | NC(=S)N1N=C(c2ccc3c(c2)OCCO3)CC1c1ccc(C(F)(F)F)cc1 (centres unmarked) [Compound C17, 3-(2,3-dihydrobenzo[b][1,4]dioxin-6-yl)-5-(4-(trifluoromethyl)phenyl)-4,5-dihydro-1H-pyrazole-1-carbothioamide] | 0.55 ± 0.02 µM | 96.4 ± 9.22 µM | 5.16 ± 0.5 µM | 30.1 ± 2.76 µM | 8.45 ± 0.78 µM | 185 ± 3.15 µM | >10000 µg/mL | 79.7 ± 7.01 µM | 0.21 ± 0.02 µM | 379.6
5 | NC(=S)N1N=C(c2ccc3c(c2)OCCO3)CC1c1ccc(Br)cc1 (centres unmarked) [Compound C13, 5-(4-bromophenyl)-3-(2,3-dihydrobenzo[b][1,4]dioxin-6-yl)-4,5-dihydro-1H-pyrazole-1-carbothioamide] | 3.24 ± 0.3 µM | 123 ± 11.2 µM | 25.8 ± 2.41 µM | 36.5 ± 3.42 µM | 2.46 ± 0.23 µM | 148 ± 2.02 µM | >10000 µg/mL | 82 ± 7.84 µM | 0.8 ± 0.07 µM | 102.5
